Experiments:
human TOR = molecular target: T1, human TOR (Homo sapiens, UniProt P42345); assay: mTOR enzyme assay (DELFIA format, purified FLAG-TOR, His6-S6K substrate); format: biochemical; details: 100 μM ATP, 1.25 μM His6-S6K, 2 hours at room temperature; read-out: TOR Kinase Median IC50
T1 construct: FLAG

PI3 Kinase = assay: PI3K fluorescence polarization assay; format: biochemical; details: 25 μM ATP, diC8-PI(4,5)P2 substrate, 1 hour at 25° C.; read-out: PI3 Kinase Median IC50

Row | IC50 (human TOR) [nM] | IC50 (PI3 Kinase) [nM] | SMILES
1 | 2800 | 724 | c1csc(-c2nc(N3CCOCC3)c3nc[nH]c3n2)c1 [Compound 1, 6-morpholin-4-yl-2-(2-thienyl)-9H-purine]
2 | 3900 | 3290 | c1nc2c(N3CCOCC3)nc(-c3ccsc3)nc2[nH]1 [Compound 2, 6-morpholin-4-yl-2-(3-thienyl)-9H-purine]
3 | 2500 |  | Oc1ccccc1-c1nc(N2CCOCC2)c2nc[nH]c2n1 [Compound 3, 2-(6-morpholin-4-yl-9H-purin-2-yl)phenol]
4 | 450 | 2680 | Oc1ccc(-c2nc(N3CCOCC3)c3nc[nH]c3n2)cc1 [Compound 4, 4-(6-morpholin-4-yl-9H-purin-2-yl)phenol]
5 | 4500 | 3750 | OCc1ccc(-c2nc(N3CCOCC3)c3nc[nH]c3n2)cc1 [Compound 5, [4-(6-morpholin-4-yl-9H-purin-2-yl)phenyl]methanol]
6 | 180 | 2750 | c1cc2cc(-c3nc(N4CCOCC4)c4nc[nH]c4n3)ccc2[nH]1 [Compound 6, 2-(1H-indol-5-yl)-6-morpholin-4-yl-9H-purine]
7 | 8900 | 1230 | c1nc2c(N3CCOCC3)nc(-c3ccc4c(c3)OCO4)nc2[nH]1 [Compound 7, 2-(1,3-benzodioxol-5-yl)-6-morpholin-4-yl-9H-purine]
8 |  | 8900 | O=[N+]([O-])c1cccc(-c2nc(N3CCOCC3)c3nc[nH]c3n2)c1 [Compound 8, 6-morpholin-4-yl-2-(3-nitrophenyl)-9H-purine]
9 |  | 2000 | c1ccc2c(-c3nc(N4CCOCC4)c4nc[nH]c4n3)csc2c1 [Compound 9, 2-(1-benzothien-3-yl)-6-morpholin-4-yl-9H-purine]
10 |  | 5710 | FC(F)(F)c1cccc(-c2nc(N3CCOCC3)c3nc[nH]c3n2)c1 [Compound 10, 6-morpholin-4-yl-2-[3-(trifluoromethyl)phenyl]-9H-purine]
11 |  | 4210 | Cc1cccc(-c2nc(N3CCOCC3)c3nc[nH]c3n2)c1 [Compound 11, 2-(3-methylphenyl)-6-morpholin-4-yl-9H-purine]
12 |  | 9920 | CC(C)c1cccc(-c2nc(N3CCOCC3)c3nc[nH]c3n2)c1 [Compound 12, 2-(3-isopropylphenyl)-6-morpholin-4-yl-9H-purine]
13 |  | 3590 | N#Cc1cccc(-c2nc(N3CCOCC3)c3nc[nH]c3n2)c1 [Compound 13, 3-(6-morpholin-4-yl-9H-purin-2-yl)benzonitrile]
14 |  | 4440 | c1ccc(-c2cccc(-c3nc(N4CCOCC4)c4nc[nH]c4n3)c2)cc1 [Compound 14, 2-biphenyl-3-yl-6-morpholin-4-yl-9H-purine]
15 |  | 8940 | c1ccc(Oc2ccccc2-c2nc(N3CCOCC3)c3nc[nH]c3n2)cc1 [Compound 16, 6-morpholin-4-yl-2-(2-phenoxyphenyl)-9H-purine]
16 |  | 5930 | CN(C)C(=O)c1ccc(-c2nc(N3CCOCC3)c3nc[nH]c3n2)cc1 [Compound 17, N,N-dimethyl-4-(6-morpholin-4-yl-9H-purin-2-yl)benzamide]
17 |  | 4340 | c1nc2c(N3CCOCC3)nc(-c3ccoc3)nc2[nH]1 [Compound 19, 2-(3-furyl)-6-morpholin-4-yl-9H-purine]
18 |  | 4300 | Oc1cccc(-c2nc(N3CCCCC3)c3nc[nH]c3n2)c1 [Compound 21, 3-(6-Piperidin-1-yl-9H-purin-2-yl)-phenol]
19 |  | 2160 | CS(=O)(=O)c1ccc(-c2nc(N3CCOCC3)c3nc[nH]c3n2)cc1 [Compound 22, 2-(4-Methanesulfonyl-phenyl)-6-morpholin-4-yl-9H-purine]
20 | 16500 | 6200 | COc1cc(COc2cccc(-c3nc(N4CCOCC4)c4nc[nH]c4n3)c2)cc(OC)c1 [Compound 23, 2-[3-(3,5-Dimethoxy-benzyloxy)-phenyl]-6-morpholin-4-yl-9H-purine]
21 | > 20000 | 4530 | Clc1cc(-c2nc(N3CCOCC3)c3nc[nH]c3n2)ccc1OCc1ccccc1 [Compound 24, 2-(4-Benzyloxy-3-chloro-phenyl)-6-morpholin-4-yl-9H-purine]
22 | 3000 | 598 | COc1cncc(-c2nc(N3CCOCC3)c3nc[nH]c3n2)c1 [Compound 42, 2-(5-methoxypyridin-3-yl)-6-morpholin-4-yl-9H-purine]
23 | 620 | 11 | Oc1cncc(-c2nc(N3CCOCC3)c3nc[nH]c3n2)c1 [Compound 43, 5-(6-morpholin-4-yl-9H-purin-2-yl)pyridin-3-ol]
24 | > 20000 |  | COc1cccc(-c2nc(N3CCOCC3)c3nc[nH]c3n2)c1 [Compound 53, 4-(2-(3-methoxyphenyl)-9H-purin-6-yl)morpholine]
25 | 19000 |  | c1ccc(-c2nc(N3CCOCC3)c3nc[nH]c3n2)cc1 [Compound 54, 4-(2-phenyl-9H-purin-6-yl)morpholine]
26 | 2120 |  | Oc1cccc(-c2nc(N3CCOCC3)c3nc[nH]c3n2)c1 [Compound 55, 3-(6-morpholino-9H-purin-2-yl)phenol]

Continued, molecule first:

Row | SMILES | IC50 (human TOR) [nM] | IC50 (PI3 Kinase) [nM]
27 | OCc1cccc(-c2nc(N3CCOCC3)c3ncn(C4CCNCC4)c3n2)c1 [Compound 25, [3-(6-Morpholin-4-yl-9-piperidin-4-yl-9H-purin-2-yl)-phenyl]-methanol] | 7200 | 57
28 | CC(=O)N1CCC(n2cnc3c(N4CCOCC4)nc(-c4cccc(CO)c4)nc32)CC1 [Compound 26, 1-(4-(2-(3-(hydroxymethyl)phenyl)-6-morpholino-9H-purin-9-yl)piperidin-1-yl)ethanone] | 2100 | 189
29 | Oc1cccc(-c2nc(N3CCOCC3)c3ncn(CC4CCN(Cc5ccccc5)CC4)c3n2)c1 [Compound 27, 3-(9-((1-benzylpiperidin-4-yl)methyl)-6-morpholino-9H-purin-2-yl)phenol] | 600 | 193
30 | Oc1cccc(-c2nc(N3CCOCC3)c3ncn(C4CCN(Cc5ccccc5)CC4)c3n2)c1 [Compound 28, 3-(9-(1-benzylpiperidin-4-yl)-6-morpholino-9H-purin-2-yl)phenol] | 140 | 
31 | OCc1cccc(-c2nc(N3CCOCC3)c3ncn(CC4CCN(Cc5ccccc5)CC4)c3n2)c1 [Compound 29, (3-(9-((1-benzylpiperidin-4-yl)methyl)-6-morpholino-9H-purin-2-yl)phenyl)methanol] | 10500 | 243
32 | OCc1cccc(-c2nc(N3CCOCC3)c3ncn(C4CCN(Cc5ccccc5)CC4)c3n2)c1 [Compound 33, {3-[9-(1-benzylpiperidin-4-yl)-6-morpholin-4-yl-9H-purin-2-yl]phenyl}methanol] | 700 | 
33 | O=Cc1cncc(-c2nc(N3CCOCC3)c3ncn(C4CCN(Cc5ccccc5)CC4)c3n2)c1 [Compound 34, 5-[9-(1-benzylpiperidin-4-yl)-6-morpholin-4-yl-9H-purin-2-yl]nicotinaldehyde] | 170 | 77
34 | OCc1cncc(-c2nc(N3CCOCC3)c3ncn(C4CCN(Cc5ccccc5)CC4)c3n2)c1 [Compound 35, {5-[9-(1-benzylpiperidin-4-yl)-6-morpholin-4-yl-9H-purin-2-yl]pyridin-3-yl}methanol] | 1000 | 63
35 | Oc1cncc(-c2nc(N3CCOCC3)c3ncn(C4CCNCC4)c3n2)c1 [Compound 36, 5-(6-morpholin-4-yl-9-piperidin-4-yl-9H-purin-2-yl)pyridin-3-ol] | 970 | 14
36 | Cc1ccc(CN2CCC(n3cnc4c(N5CCOCC5)nc(-c5cncc(O)c5)nc43)CC2)s1 [Compound 37, 5-(9-{1-[(5-methyl-2-thienyl)methyl]piperidin-4-yl}-6-morpholin-4-yl-9H-purin-2-yl)pyridin-3-ol] | 140 | 26
37 | Oc1cncc(-c2nc(N3CCOCC3)c3ncn(C4CCN(Cc5ccc(Cl)cc5)CC4)c3n2)c1 [Compound 38, 5-{9-[1-(4-chlorobenzyl)piperidin-4-yl]-6-morpholin-4-yl-9H-purin-2-yl}pyridin-3-ol] | 160 | 
38 | Oc1cncc(-c2nc(N3CCOCC3)c3ncn(C4CCN(Cc5ccc[nH]5)CC4)c3n2)c1 [Compound 39, 5-{6-morpholin-4-yl-9-[1-(1H-pyrrol-2-ylmethyl)piperidin-4-yl]-9H-purin-2-yl}pyridin-3-ol] | 940 | 31
39 | Cc1ccc(CN2CCC(n3cnc4c(N5CCOCC5)nc(-c5cncc(O)c5)nc43)CC2)cc1 [Compound 40, 5-{9-[1-(4-methylbenzyl)piperidin-4-yl]-6-morpholin-4-yl-9H-purin-2-yl}pyridin-3-ol] | 590 | 
40 | Oc1cncc(-c2nc(N3CCOCC3)c3ncn(C4CCN(Cc5ccc(F)nc5)CC4)c3n2)c1 [Compound 41, 5-{9-[1-(6-fluoro-pyridin-3-ylmethyl)-piperidin-4-yl]-6-morpholin-4-yl-9H-purin-2-yl}-pyridin-3-ol] | 570 | 94
41 | OCc1cccc(-c2nc(N3CCOCC3)c3ncn(C4CCN(Cc5ccc(-c6ccncc6)cc5)CC4)c3n2)c1 [Compound 47, (3-{6-morpholin-4-yl-9-[1-(4-pyridin-4-ylbenzyl)piperidin-4-yl]-9H-purin-2-yl}phenyl)methanol] | 720 | 
42 | OCc1cccc(-c2nc(N3CCOCC3)c3ncn(C4CCN(Cc5ccccc5)CC4)c3n2)c1 [Compound 51, {3-[9-(1-benzylpiperidin-4-yl)-6-morpholin-4-yl-9H-purin-2-yl]phenyl}methanol] | 1000 | 
43 | Oc1cccc(-c2nc(N3CCOCC3)c3ncn(C4CCN(Cc5cccnc5)CC4)c3n2)c1 [Compound 76, 3-{6-morpholin-4-yl-9-[1-(pyridin-3-ylmethyl)piperidin-4-yl]-9H-purin-2-yl}phenol] | 170 | 
44 | Oc1cccc(-c2nc(N3CCOCC3)c3ncn(C4CCN(Cc5ccc(Br)nc5)CC4)c3n2)c1 [Compound 81, 3-(9-{1-[(6-bromopyridin-3-yl)methyl]piperidin-4-yl}-6-morpholin-4-yl-9H-purin-2-yl)phenol] | 120 | 
